{"source": "patent US20050124554A1", "about": "“Spermidine derivatives for the treatment of chronic neurodegenerative diseases” (priority 2002, published 2005)", "key": {"[1]": {"system": "organotypic hippocampal slice cultures (CA1 pyramidal cell layer)", "assay": "Free-radical mediated injury (duroquinone), cell death by PI fluorescence", "type": "cell-based, Wistar rat", "conditions": "100 μM duroquinone 3 h; 300 μM compound", "experimental": "Organotypic hippocampal slice cultures were prepared according to established methods (Pringle et al. (1997), Brain Res., 755, 36-46). In brief, Wistar rat pups (8-11 days old) were decapitated and the hippocampus rapidly dissected into ice-cold Gey's balanced salt solution (Gibco Life Technologies, Paisley, UK) supplemented with 4.5 mg ml^−1 glucose. Slices were separated and plated onto Millicell CM culture inserts (4 per well) and maintained at 37° C. and 5% CO2 for 14 days. […]\nFree-radical mediated injury was performed as described previously with L-Arg3,4 present pre-, during, and post-injury in treated cultures (Wilde et al. (1997, J. Neurochem., 69, 883-886). Briefly, cultures were transferred to SFM+PI with or without 300 μM L-Arg3,4 and allowed to equilibrate for 30 min prior to imaging. Any cultures in which PI fluorescence was detected at this stage were excluded from further study. Duroquinone (DQ) was dissolved in DMSO at a stock concentration of 100 mM which was then diluted 1:1000 in SFM for a final working concentration of 100 μM (final DMSO concentration of 0.1%). […]\nNeuronal damage was assessed as described previously (Pringle et al. (1996), Stroke, 27, 2124-2130; Pringle et al. (1997), Brain Res., 755, 36-46). Light transmission images were captured prior to the induction of injury, and PI fluorescence images recorded at the end of the 24 h post-injury recovery period. […]"}, "[2]": {"system": "organotypic hippocampal slice cultures (CA1 pyramidal cell layer)", "assay": "Experimental ischaemia (oxygen glucose deprivation), cell death by PI fluorescence", "type": "cell-based, Wistar rat", "experimental": "(§1) Organotypic hippocampal slice cultures were prepared according to established methods (Pringle et al. (1997), Brain Res., 755, 36-46). In brief, Wistar rat pups (8-11 days old) were decapitated and the hippocampus rapidly dissected into ice-cold Gey's balanced salt solution (Gibco Life Technologies, Paisley, UK) supplemented with 4.5 mg ml^−1 glucose. Slices were separated and plated onto Millicell CM culture inserts (4 per well) and maintained at 37° C. and 5% CO2 for 14 days. Maintenance medium consisted of 25% heat-inactivated horse serum, 25% Hank's balanced salt solution (HBSS) and 50% minimum essential medium with added Earle's salts MM, ICN Biomedicals, Basingstoke, UK) supplemented with 1 mM glutamine and 4.5 mg ml^−1 glucose. Medium was changed every 3-4 days.\nExperimental ischaemia or oxygen glucose deprivation was performed as described previously (Pringle et al. (1996), Stroke, 27, 2124-2130). Briefly, cultures were transferred to serum-free media (SFM, 75% MEM, 25% HDSS supplemented with 1 mM glutamine and 4.5 mg ml^−1 glucose) containing 5 μg ml^−1 of the fluorescent exclusion dye propidium iodide (PI). Cultures were allowed to equilibrate in SFM for 30 min prior to imaging, with or without L-Arg3,4. PI fluorescence was detected using a Leica inverted microscope as described below. Any cultures in which PI fluorescence was detected at this stage were excluded from further study. Ischaemia was induced by transferring cultures to glucose-free media (MEM with Earl's salts without glucose and supplemented with 1 mM glutamine) saturated with 95% N2 and 5% CO2. Culture plates (without lids) were then sealed into an airtight chamber (Billups-Rothenberg, Del Mar, Calif.) gassed with 95% N2 and 5% CO2 at 10 L min^−1 for 10 min before being sealed and placed at 37° C. for 50 min. At the end of the ischaemia, cultures were returned to normoxic SFM+PI, with or without compound at the indicated concentrations, and placed back in the incubator for 24 h.\n(§2) Neuronal damage was assessed as described previously (Pringle et al. (1996), Stroke, 27, 2124-2130; Pringle et al. (1997), Brain Res., 755, 36-46). Light transmission images were captured prior to the induction of injury, and PI fluorescence images recorded at the end of the 24 h post-injury recovery period. All images were captured on an inverted Leica DM-IRBE epifluorescence microscope (Milton Keynes, UK) fitted with a 100 W Hg lamp and standard rhodamine optics (excitation 510-560 nm; dichroic mirror […]; emission>590 nm). Images were acquired with a 5×NA 0.12 lens and a cooled Hamamatsu digital camera and digitised at 12 bit resolution for analysis in OpenLab 2.1 (Improvision, Coventry, UK) running on a Macintosh G4/400. The area of the CA1 or CA3 cell layer was determined from the transmission image, and the area of PI fluorescence in that cell layers was measured using the density slice function within OpenLab. Neuronal damage was expressed as a percentage of the area in which PI fluorescence was detected above threshold within a cell layer divided by the total area of that cell layer. Protection was calculated as the difference between the damage for a given well and the average damage in untreated controls divided by the average damage in untreated controls. Groups were compared against corresponding control groups using the two tailed Student's t-test with significance indicated as * for P<0.05, and ** for P<0.01. Data is presented as mean±s.e.mean."}, "[3]": {"conditions": "previous studies, WO99/31049; cited from earlier work"}, "[4]": {"system": "organotypic hippocampal slice cultures (CA1 or CA3 pyramidal cell layer)", "assay": "Excitotoxic injury by glutamate receptor agonists, cell death by PI fluorescence", "type": "cell-based, Wistar rat", "conditions": "for protection: 300 μM", "experimental": "as §1\nExcitotoxic injury was performed as previously described (Pringle et al. (1997), Brain Res., 755, 36-46) with L-Arg3,4 present pre-, during, and post-injury fin treated cultures. Cultures were transferred to SFM+PI with or without 300 μM L-Arg3,4 and allowed to equilibrate for 30 min prior to imaging. […] The medium was then exchanged for SFM+PI plus a glutamate receptor agonist (either 10 mM glutamate, 10 μM NMDA, 10 μM AMPA, or 10 μM kainate) for 3 h. After exposure, the media was again exchanged for SFM+PI containing 300 μM L-Arg3,4. Cultures were then returned to the incubator until they were assessed for cell death in the indicated region of the pyramidal cell layer 24 h post exposure.\nas §2"}, "[5]": {"conditions": "300 μM applied 0 min post-injury"}, "[6]": {"conditions": "300 μM applied 10 min post-injury"}, "[7]": {"conditions": "300 μM applied 60 min post-injury"}}, "data": [{"smiles": "N=C(N)NCCCC(N)C(=O)NCCCNCCCCN", "note": "[L-Arg3,4, L-arginyl-3,4-spermidine]", "values": [{"measurement": "injury (cell death in CA1)", "setting": "[1]", "value": "21±5", "unit": "%"}, {"measurement": "protection", "setting": "[1]", "value": 46, "unit": "%"}, {"measurement": "damage", "setting": "[2]; 300 nM post-injury, dose study", "value": "did not reduce damage"}, {"measurement": "damage", "setting": "[2]; 3 μM post-injury, dose study", "value": "19±5", "unit": "%"}, {"measurement": "protection", "setting": "[2]; 3 μM post-injury, dose study", "value": 43, "unit": "%"}, {"measurement": "damage", "setting": "[2]; 30 μM post-injury, dose study", "value": "11±3", "unit": "%"}, {"measurement": "protection", "setting": "[2]; 30 μM post-injury, dose study", "value": 67, "unit": "%"}, {"measurement": "delay of administration post-ischaemia at which still neuroprotective (therapeutic window)", "setting": "[2]; 300 μM", "value": "up to 60 min"}, {"measurement": "damage", "setting": "[2]; [5]", "value": "23±3", "unit": "%"}, {"measurement": "protection", "setting": "[2]; [5]", "value": 40, "unit": "%"}, {"measurement": "damage", "setting": "[2]; [6]", "value": "15±2", "unit": "%"}, {"measurement": "protection", "setting": "[2]; [6]", "value": 59, "unit": "%"}, {"measurement": "damage", "setting": "[2]; 300 μM applied 30 min post-injury", "value": "28±4", "unit": "%"}, {"measurement": "protection", "setting": "[2]; 300 μM applied 30 min post-injury, not statistically significant", "value": 26, "unit": "%"}, {"measurement": "damage", "setting": "[2]; [7]", "value": "26±3", "unit": "%"}, {"measurement": "protection", "setting": "[2]; [7]", "value": 30, "unit": "%"}, {"measurement": "damage", "setting": "[2]; 300 μM post-injury, dose study", "value": "23±3", "unit": "%"}, {"measurement": "protection", "setting": "[2]; 300 μM post-injury, dose study", "value": 32, "unit": "%"}, {"measurement": "protection", "setting": "[2]; 300 μM pre-, during, and post-ischaemia (PDP)", "value": 39, "unit": "%"}, {"measurement": "neurodegeneration (PI area as % of cell layer)", "setting": "[2]; 300 μM pre-, during, and post-ischaemia (PDP), 1 h ischaemia, 24 h", "value": "23±4", "unit": "%"}, {"measurement": "effect on blood pressure, heart rate, respiration, motor function", "setting": "[3]", "value": "did not affect blood pressure, heart rate or respiration, or result in adverse motor function"}, {"measurement": "cell death (damage) in CA1", "setting": "[4]; 10 μM AMPA 3 h, 300 μM compound", "value": "19±4", "unit": "%"}, {"measurement": "protection", "setting": "[4]; 10 μM AMPA, CA1", "value": 53, "unit": "%"}, {"measurement": "cell death (damage) in CA1", "setting": "[4]; 10 μM NMDA 3 h, 300 μM compound", "value": "16±2", "unit": "%"}, {"measurement": "protection", "setting": "[4]; 10 μM NMDA, CA1", "value": 38, "unit": "%"}, {"measurement": "cell death (damage) in CA3", "setting": "[4]; 10 μM kainate 3 h, 300 μM compound", "value": "11±4", "unit": "%"}, {"measurement": "protection", "setting": "[4]; 10 μM kainate, CA3", "value": 61, "unit": "%"}, {"measurement": "cell death (damage) in CA1", "setting": "[4]; 10 mM Glut 3 h, 300 μM compound pre-, during, post-injury", "value": "13±3", "unit": "%"}, {"measurement": "protection", "setting": "[4]; 10 mM Glut, CA1", "value": 41, "unit": "%"}]}]}
